Reference: the NIST ThermoML archive (doi:10.1021/je5000617)
Numbers after ± are expanded uncertainties.

Details: for mass density / speed of sound / viscosity: 101.33 kPa, Liquid; for viscosity: Concentric cylinders viscometry

CCCCCCCCOS(=O)(=O)[O-].CCCCn1cc[n+](C)c1 [1-butyl-3-methylimidazolium octyl sulfate]
Details | mass density [kg/m3] | speed of sound [m/s] | surface tension liquid-gas [mN/m]
303 K | 1060.2 ± 10 | 1461 ± 13 | 35.7 ± 3
308 K | 1057.8 ± 11 | 1450 ± 13 | 35.2 ± 2.9
313 K | 1053.2 ± 11 | 1430 ± 13 | 34.9 ± 2.9
318 K | 1050.8 ± 11 | 1419 ± 13 | 34.7 ± 2.9
323 K | 1046.4 ± 11 | 1406 ± 13 | 34.3 ± 2.9
328 K | 1042.2 ± 11 | 1391 ± 13 | 33.9 ± 2.8
333 K | 1039.8 ± 11 | 1380 ± 13 | –

CCn1cc[n+](C)c1.CS(=O)(=O)[O-] [1-ethyl-3-methylimidazolium methanesulfonate]
Details | mass density [kg/m3] | speed of sound [m/s] | surface tension liquid-gas [mN/m] | viscosity [mPa·s]
303 K | 1247 ± 14 | 1796 ± 15 | 47.8 ± 3.8 | 120 ± 20
308 K | 1243.2 ± 14 | 1778 ± 15 | 47.4 ± 3.7 | 87 ± 20
313 K | 1240.2 ± 14 | 1764 ± 15 | 47 ± 3.7 | 63 ± 20
318 K | 1237.6 ± 14 | 1752 ± 15 | 46.7 ± 3.7 | 48 ± 20
323 K | 1234.4 ± 14 | 1738 ± 15 | 46.1 ± 3.7 | 37
328 K | 1232.4 ± 14 | 1727 ± 15 | 45.7 ± 3.6 | 29
333 K | 1230.2 ± 14 | 1708 ± 15 | 45.4 ± 3.6 | 20

CCCCn1cc[n+](C)c1.F[P-](F)(F)(F)(F)F [1-butyl-3-methylimidazolium hexafluorophosphate]
Details | mass density [kg/m3] | speed of sound [m/s] | surface tension liquid-gas [mN/m] | viscosity [mPa·s]
303 K | 1359.4 ± 5.2 | 1433 ± 12 | 45.3 ± 3.4 | 190 ± 5
308 K | 1358.2 ± 5.4 | 1417 ± 12 | 45 ± 3.4 | 150 ± 4
313 K | 1353.2 ± 5.5 | 1408 ± 12 | 44.7 ± 3.4 | 132 ± 3
318 K | 1349.8 ± 5.6 | 1395 ± 12 | 44.4 ± 3.4 | 106 ± 3
323 K | 1346.8 ± 5.7 | 1384 ± 12 | 44.1 ± 3.4 | 90 ± 2
328 K | 1343.8 ± 5.9 | 1374 ± 12 | 43.8 ± 3.4 | 75 ± 2
333 K | 1340.6 ± 6 | 1363 ± 12 | 43.5 ± 3.3 | 58 ± 2
